The target in experiment [1] is T1, human HPK1 (Homo sapiens, UniProt Q92918). In words: Assay of in vitro HPK1 enzymatic activity (ADP-Glo). Type of experiment: biochemical. Particulars: 7 nM kinase, 20 uM ATP. The method, then:
Compounds were evaluated for their ability to inhibit human HPK1 by IC50 determination using the ADP-Glo method to measure the kinase activity.
Buffer conditions of the enzyme: 50 mM Hepes (pH 7.5), 10 mM MgCl2, 1 mM EGTA, 0.01% Brij35, 2 mM DTT.
Preparation of the Kinase and substrate mixture: the working concentration of the kinase in the HPK1 reaction solution was 7 nM and the working concentration of ATP was 20 uM.
The compound was diluted with DMSO in a dilution plate, with a maximum starting concentration of 1 uM and 10 concentration gradient points (4-fold dilution).
Each of the above 10 concentration gradient points of the compound was then diluted 50-fold into the kinase reaction buffer and shaken on a shaker for 20 min. The kinase was prepared in an enzyme reaction buffer and 2 μl of the HPK1 kinase was added per well of the reaction plate at a HPK1 kinase concentration of 7 nM.
1 μl of diluted compound in the buffer was added per well, and the plate was sealed with a plate sealing film, centrifuged at 1000 g for 30 seconds, and left at room temperature for 10 minutes. An ATP solution was prepared with an enzyme reaction buffer and 2 μl of the ATP solution was added to the reaction plate (the working concentration of ATP was 20 uM). The plate was sealed with a plate sealing film, centrifuged at 1000 g for 30 seconds, and reacted at room temperature for 60 minutes. 4 μL of ADP-Glu was transferred to a 384 reaction plate, centrifuged at 1000 rpm/min for 1 min, and incubated at 25° C. for 40 min. 8 μL of the Detection solution was transferred to a 384 reaction plate, centrifuged at 1000 rpm/min for 1 min, and incubated at 25° C. for 40 min. The RLU (Relative luminescence unit) signal was read using a BMG microplate reader, and the signal intensity was used to characterize the activity level of the kinase.
The kinase activity data was expressed by comparing the kinase activity of the test compound and the blank group (containing only DMSO), and the IC50 value was obtained by curve fitting using the Prism software (GraphPad7.0).

Experiment [2] concerns IL2 activation in human PBMC. Description: IL2 activity assay (ELISA) in human PBMC. Particulars: CD3/CD28 antibody, 24 h. The format is cell-based. How it is done: The compound was diluted with DMSO in a dilution plate, with a maximum starting concentration of 10 μM, 8 concentration gradient points (3-fold dilution), and then added to the 96-well plate along with the addition of 5 µg/ml CD28 antibody. Incubation was performed for 24 h. • (3) The ELISA plate was washed twice with PBS, and an ELISA dilution was added at 100 µl/well. Then 100 μl of the standard and the incubated samples obtained in step 2 were added separately, and incubated for 2 h at room temperature. • (4) Each well was washed 3 times by adding with 400 μl washing buffer per well, and was finally blotted to dryness with a clean absorbent paper. • (5) 200 μl of the IL2 conjugate was added per well, covered with a fresh tape, and incubated for 2 h at room temperature. Step (4) was repeated. • (6) 200 μl of the substrate was added per well under the protection from light. The plate was incubated at room temperature for 20 min. • (7) 50 μL of a stop solution was added per well. The color of the wells should be from blue to yellow. Signals at […] were read by a microplate reader, and the signal intensity was used to characterize the activity level of IL2. EC50 values were obtained by fitting using the Prism software.

The target of experiment [3] is T1, human HPK1. Description: HPK1 protein degradation assay (WB) in RAMOS cell line. Type of experiment: cell-based. Set-up: The RAMOS cell line was selected as the degradation cell line; endogenous in cells; host or cells: RAMOS. Particulars: RAMOS cells, 16 h, Western blot. How it is done: Degradation of HPK1 proteins and DC50/Dmax were determined by the WB method in order to evaluate the in vitro degradative ability of the compound.
The RAMOS cell line was selected as the degradation cell line. Incubation Conditions: RMPI 1640 culture medium supplemented with 10% FBS, 37° C., 5% CO2.
• (1) Plating cells: in a 6 cm dish with 4 ml of the culture medium, cells plated at 2×10^6 cells/dish. • (2) Drug addition: the compound (stock solution concentration: 10 mM) was diluted with DMSO in a dilution plate, with a maximum starting concentration of 10 μM and 7 concentration gradient points (3-fold dilution). 4 μl of each diluted solution was taken, added to a dish, and incubated for 16 h. • (3) Cells were harvested, added with a lysis buffer, and centrifuged at 12000 rpm/min for 20 min. The supernatant was collected. After quantification using a BCA quantification kit, 5× loading buffer was added to denature for 10 min. • (4) 10 μg of denatured protein was added to the SDS-PAGE gel. After electrophoresis and membrane transfer, the plate was blocked with 5% BSA for 1 h, incubate with the primary antibody at 4° C. overnight. After washing off the primary antibody, the secondary antibody was added, incubated at room temperature for 1 h, and washed off.
Imaging: the membranes were scanned with a two-color fluorescence imaging system.
(In general: A western blot detects proteins with antibodies after separation by electrophoresis.)

T1 sequence (Q92918 whole entry): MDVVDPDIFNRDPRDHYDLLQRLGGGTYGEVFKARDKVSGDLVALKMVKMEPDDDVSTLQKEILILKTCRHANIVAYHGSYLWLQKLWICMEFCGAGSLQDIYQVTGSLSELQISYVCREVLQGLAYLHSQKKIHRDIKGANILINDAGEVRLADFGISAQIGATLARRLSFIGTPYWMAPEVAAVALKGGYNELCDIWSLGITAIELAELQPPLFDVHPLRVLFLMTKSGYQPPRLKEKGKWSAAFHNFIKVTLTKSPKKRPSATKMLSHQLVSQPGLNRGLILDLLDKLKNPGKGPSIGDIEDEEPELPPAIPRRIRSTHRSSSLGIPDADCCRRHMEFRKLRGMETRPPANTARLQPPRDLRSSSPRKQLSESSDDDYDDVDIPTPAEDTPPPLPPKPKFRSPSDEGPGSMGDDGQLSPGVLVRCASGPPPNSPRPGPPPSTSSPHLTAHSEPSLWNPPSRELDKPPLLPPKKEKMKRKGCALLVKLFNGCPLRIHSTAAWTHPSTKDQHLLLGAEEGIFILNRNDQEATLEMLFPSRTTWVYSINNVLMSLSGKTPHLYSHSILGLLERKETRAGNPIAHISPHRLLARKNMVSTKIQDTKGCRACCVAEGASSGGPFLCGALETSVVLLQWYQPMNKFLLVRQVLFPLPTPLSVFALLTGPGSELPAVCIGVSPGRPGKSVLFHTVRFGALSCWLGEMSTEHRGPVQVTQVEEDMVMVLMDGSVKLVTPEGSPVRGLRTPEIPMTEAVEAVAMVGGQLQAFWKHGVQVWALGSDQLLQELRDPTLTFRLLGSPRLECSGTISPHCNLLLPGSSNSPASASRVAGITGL

Regarding `CCN1CCC(n2cc(-c3c[nH]c4ncc(-c5cnc(N6CCN(CC7CN(C(=O)c8cccc(N9CCC(=O)NC9=O)c8)C7)CC6)c(C)c5)nc34)cn2)CC1` [Compound C011], it took 0.7 nM to reach half-maximal inhibition in experiment [1] (IC50). This counts as sub-nanomolar.

In the case of `CCN1CCC(n2cc(-c3c[nH]c4ncc(-c5cnc(OC6CCN(C(=O)c7cccc(N8CCC(=O)NC8=O)c7)CC6)c(C)c5)nc34)cn2)CC1` [Compound C014], inhibition in experiment [1] was half-maximal at 1.5 nM (IC50).

On to `CCN1CCC(n2cc(-c3c[nH]c4ncc(-c5cnc(OC(C)CNC(=O)c6ccc(Cl)c(N7CCC(=O)NC7=O)c6)c(C)c5)nc34)cn2)CC1` (centres unmarked) [Compound C043], for which, in experiment [1], 27.8 nM corresponded to half-maximal inhibition (IC50).

`CCN1CCC(n2cc(-c3c[nH]c4ncc(-c5ccc(N6CCC(OC7CCN(C(=O)c8ccc(Cl)c(N9CCC(=O)NC9=O)c8)CC7)CC6)cc5)nc34)cn2)CC1` [Compound C131]: the EC50 (commonly the concentration giving half of the maximal effect) in experiment [2] turned out to be 41.7 nM. Further, in experiment [3], the DC50 – broadly, the midpoint of the concentration-degradation curve – worked out at 386 nM and the Dmax (commonly the largest share of the target that was removed) came to 52%.

Turning to `CCN1CCC(n2cc(-c3c[nH]c4ncc(-c5cnc(N6CCN(CC7CCN(C(=O)c8cccc(N9CCC(=O)NC9=O)c8)CC7)CC6)c(C)c5)nc34)cn2)CC1` [Compound C002], half-maximal inhibition in experiment [1] (IC50) was put at 2.6 nM.

With `CCN1CCC(n2cc(-c3c[nH]c4ncc(-c5ccc(OCCCNC(=O)c6ccc(Cl)c(N7CCC(=O)NC7=O)c6)c(C)c5)nc34)cn2)CC1` [Compound C039], the IC50 – broadly, the concentration at which inhibition is half-maximal – in experiment [1] is 1.4 nM.

Take `CCN1CCC(n2cc(-c3c[nH]c4ncc(-c5ccc(N6CCC(C)(CN7CCN(C(=O)c8ccc(Cl)c(N9CCC(=O)NC9=O)c8)CC7)CC6)cc5)nc34)cn2)CC1` [Compound C139]: a half-maximal effect in experiment [2] (EC50) was put at 104 nM. In experiment [3], this molecule displayed a DC50 of 52.4 nM and a Dmax of 80.9%.

`CCN1CCC(n2cc(-c3c[nH]c4ncc(-c5ccc(OCCNC6CCC(NC(=O)c7ccc(Cl)c(N8CCC(=O)NC8=O)c7)CC6)nc5)nc34)cn2)CC1` (centres unmarked) [Compound C028] gave an IC50 in experiment [1] of 2.4 nM.

`CCN1CCC(n2cc(-c3c[nH]c4ncc(-c5ccc(OCCNC(=O)c6ccc(Cl)c(N7CCC(=O)NC7=O)c6)nc5)nc34)cn2)CC1` [Compound C033] returned an IC50 in experiment [1] of 7.5 nM.

In experiment [2], `CCN1CCC(n2cc(-c3c[nH]c4ncc(-c5ccc(N6CCC(CC7CCCN(C(=O)c8ccc(Cl)c(N9CCC(=O)NC9=O)c8)CC7)CC6)cc5)nc34)cn2)CC1` (centres unmarked) [Compound C122] returned an EC50 of 59.9 nM.

In experiment [1], `CCN1CCC(n2cc(-c3c[nH]c4ncc(-c5ccc(N6CCN(C(=O)CCCCCNc7cccc8c7C(=O)N(C7CCC(=O)NC7=O)C8=O)CC6)nc5)nc34)cn2)CC1` (centres unmarked) [Compound C026] registered an IC50 of 1.6 nM.

In experiment [1], `CCN1CCC(n2cc(-c3c[nH]c4ncc(-c5ccc(N6CCN(C7CC8(CCN(C(=O)c9ccc(Cl)c(N%10CCC(=O)NC%10=O)c9)CC8)C7)CC6)cc5)nc34)cn2)CC1` [Compound C030] registered an IC50 of 0.2 nM.

Turning to `CCN1CCC(n2cc(-c3c[nH]c4ncc(-c5cnc(OCCNC(=O)c6cccc(N7CCC(=O)NC7=O)c6)c(C)c5)nc34)cn2)CC1` [Compound C016], in experiment [1], half-maximal inhibition (IC50) was put at 15 nM.

Turning to `CCN1CCC(n2cc(-c3c[nH]c4ncc(-c5cnc(N6CCN(C(=O)c7ccc(N8CCC(=O)NC8=O)cc7)CC6)c(C)c5)nc34)cn2)CC1` [Compound C001], the 50% inhibitory concentration (IC50) in experiment [1] turned out to be 5.2 nM. Against the preceding molecule, the IC50 is about 2.9-fold lower.

For the molecule `CCN1CCC(n2cc(-c3c[nH]c4ncc(-c5ccc(OCC(C)(C)CNC(=O)c6ccc(Cl)c(N7CCC(=O)NC7=O)c6)nc5)nc34)cn2)CC1` [Compound C041], the IC50 in experiment [1] came to 14.6 nM.

As to `CCN1CCC(n2cc(-c3c[nH]c4ncc(-c5ccc(N6CCN(C7CCC(NC(=O)c8ccc(Cl)c(N9CCC(=O)NC9=O)c8)CC7)CC6)nc5)nc34)cn2)CC1` (centres unmarked) [Compound C027], the IC50 in experiment [1] was 0.9 nM.

For the molecule `CCN1CCC(n2cc(-c3c[nH]c4ncc(-c5cnc(OC6CCN(C(=O)c7cccc(N8CCC(=O)NC8=O)c7)CC6)c(C)c5)nc34)cn2)CC1` [Compound C019], in experiment [1], half-maximal inhibition (IC50) required 2 nM.

Regarding `CCN1CCC(n2cc(-c3c[nH]c4ncc(-c5ccc(N6CCN(C(=O)CCOCCNc7cccc8c7C(=O)N(C7CCC(=O)NC7=O)C8=O)CC6)nc5)nc34)cn2)CC1` (centres unmarked) [Compound C025], half-maximal inhibition in experiment [1] (IC50) was put at 8.8 nM.

Take `CCN1CCC(n2cc(-c3c[nH]c4ncc(-c5ccc(OCCNC(=O)c6ccc(Cl)c(N7CCC(=O)NC7=O)c6)c(C)c5)nc34)cn2)CC1` [Compound C034]: the midpoint of inhibition in experiment [1], the IC50, lay at 1.2 nM.

In experiment [1], `CCN1CCC(n2cc(-c3c[nH]c4ncc(-c5cnc(OC6CN(C(=O)c7cccc(N8CCC(=O)NC8=O)c7)C6)c(C)c5)nc34)cn2)CC1` [Compound C015] yielded an IC50 of 6.2 nM.

In turn, `CCN1CCC(n2cc(-c3c[nH]c4ncc(-c5ccc(OCCCCNC(=O)c6ccc(Cl)c(N7CCC(=O)NC7=O)c6)nc5)nc34)cn2)CC1` [Compound C038] gave an IC50 in experiment [1] of 21.7 nM.

Turning to `CCN1CCC(n2cc(-c3c[nH]c4ncc(-c5ccc(OC(C)CNC(=O)c6ccc(Cl)c(N7CCC(=O)NC7=O)c6)nc5)nc34)cn2)CC1` (centres unmarked) [Compound C044], inhibition in experiment [1] was half-maximal at 50.4 nM (IC50).

Molecule `CCN1CCC(n2cc(-c3c[nH]c4ncc(-c5cnc(OCC(=O)N6CCC(c7ccc(NC8CCC(=O)NC8=O)cc7)CC6)c(C)c5)nc34)cn2)CC1` (centres unmarked) [Compound C007] had an IC50 in experiment [1] of 5.2 nM.

`CCN1CCC(n2cc(-c3c[nH]c4ncc(-c5ccc(N6CCN(C7CCC(NC(=O)c8ccc(Cl)c(N9CCC(=O)NC9=O)c8)CC7)CC6)cc5)nc34)cn2)CC1` (centres unmarked) [Compound C029]: the IC50 in experiment [1] was determined as 1.6 nM.

As to `CCN1CCC(n2cc(-c3c[nH]c4ncc(-c5ccc(OCCNC(=O)c6ccc(Cl)c(N7CCC(=O)NC7=O)c6)cc5)nc34)cn2)CC1` [Compound C035], the IC50 in experiment [1] was determined as 2.5 nM.

In experiment [1], `CCN1CCC(n2cc(-c3c[nH]c4ncc(-c5cnc(N6CCN(CC7CCN(C(=O)c8ccc(Cl)c(N9CCC(=O)NC9=O)c8)CC7)CC6)c(C)c5)nc34)cn2)CC1` [Compound C004] showed an IC50 of 1.6 nM.

With `CCN1CCC(n2cc(-c3c[nH]c4ncc(-c5cnc(NCCNC(=O)c6cccc(N7CCC(=O)NC7=O)c6)c(C)c5)nc34)cn2)CC1` [Compound C009], half-maximal inhibition in experiment [1] (IC50) was put at 8.8 nM.

For `CCN1CCC(n2cc(-c3c[nH]c4ncc(-c5ccc(N6CCN(CC7CCN(C(=O)c8ccc(Cl)c(N9CCC(=O)NC9=O)c8)CC7)CC6)nc5)nc34)cn2)CC1` [Compound C020], in experiment [1], the midpoint of inhibition, the IC50, lay at 5.5 nM.

For the molecule `CCN1CCC(n2cc(-c3c[nH]c4ncc(-c5ccc(OCCN6CCC(NC(=O)c7ccc(Cl)c(N8CCC(=O)NC8=O)c7)CC6)nc5)nc34)cn2)CC1` [Compound C023], in experiment [1], it took 6.4 nM to reach half-maximal inhibition (IC50).

`CCN1CCC(n2cc(-c3c[nH]c4ncc(-c5cnn(C6CCN(C7CCC(NC(=O)c8ccc(Cl)c(N9CCC(=O)NC9=O)c8)CC7)CC6)c5)nc34)cn2)CC1` (centres unmarked) [Compound C036] had an IC50 in experiment [1] of 3.7 nM.

For `CCN1CCC(n2cc(-c3c[nH]c4ncc(-c5cnc(N6CCN(CC7CN(c8cccc9c8C(=O)N(C8CCC(=O)NC8=O)C9=O)C7)CC6)c(C)c5)nc34)cn2)CC1` (centres unmarked) [Compound C012], the IC50 in experiment [1] worked out at 1.9 nM.

The record behind these values is patent US20260116884A1, “PROTAC CHIMERIC COMPOUND, PREPARATION METHOD THEREFOR AND USE THEREOF” (HANGZHOU ZHONGMEIHUADONG PHARMACEUTICAL CO., LTD., priority 2022, published 2026).
